Experimental data: patent US6537967B1, “Pentamer peptide amide, ALGPGNH2, which inhibits viral infectivity and methods of use thereof” (Tripep AB, priority 2001, dated 2003)
Peptide text beside a SMILES is read from it.

Experiments:
Type in all cases: cell-based
HIV-1 SF-2 = HIV-1 SF-2 infectivity assay in H9 cells (RT activity and p24 in culture supernatant); conditions: 25 TCID50, FIG. 1
Description: (§1) In this example, the methods that were used to analyze the ability of ALGPG-NH2 (SEQ. ID. NO.: 1) to inhibit HIV- l replication are disclosed. HIV-1 SF-2 stock was prepared from HUT78 cells and two clinical isolates were prepared from donor's peripheral blood mononuclear cells (PBMC). The virus infected cells were propagated and maintained in RPMI 1640 medium supplemented with 10% heat inactivated fetal bovine serum (GIBCO Laboratories) with penicillin and streptomycin (100 μg/ml each). PBMCs were purified by Ficoll-Hypaque density gradient centrifugation and stimulated with phytohemagglutinin (KEBO laboratories, Sweden) for three days in RPMI 1640 medium supplemented with 10% heat inactivated fetal bovine serum (GIBCO Laboratories) with penicillin and streptomycin (100 μg/ml each).
Approximately 10^5 of H9 cells were infected with HIV-1 SF-2, obtained as described above, at 25 TCID50 to test the inhibitory effect of ALGPG-NH2 (SEQ. ID. NO.: 1). The H9 cells were resuspended with or without ALGPG-NH2 (SEQ. ID. NO.: 1) (at approximately 5 μM, 20 μM, and […]) in 1 ml of RPMI 1640 medium supplemented with 10% (v/v) heat-inactivated fetal bovine serum (FBS), penicillin (100 μ/ml), and streptomycin (100 u/ml), all available through GIBCO, and Polybrene (2 μg/ml), available through Sigma. Thereafter, viruses were added at 25 TCID50 in a volume of 20-30 μl. Cells were incubated with virus at 37° C. for 1 hr then pelleted at 170×g for 7 minutes. The cells were then washed three times in RPMI medium with or without peptides at room temperature and pelleted at 170×g for 7 minutes, as above. […]
Culture supernatants were collected and analyzed when the medium was changed at 4, 7, 10, and 14 days post infection. […] The amount of RT was determined with the aid of a regression line of standards. The presence of p24 in the supernatants was determined using a commercially available HIV p24 antigen detection kit (ELISA kit from Abbott Laboratories, North Chicago, U.S.A.).

HIV-1 clinical isolate 1 = HIV-1 clinical isolate 1 infectivity assay in PBMC (p24 in culture supernatant); conditions: FIG. 2
Description: as §1
(§2) The infectivity assays of the HIV-1 clinical isolates were performed, as above, in PBMC, which were stimulated for three days with 2.5 μg/ml of phytohemagglutinin (DIFCO, New Jersey). Cells were cultured in RPMI 1640 medium supplemented with 10% (v/v) heat-inactivated fetal bovine serum (FBS), penicillin (100 u/ml), and streptomycin (100 u/ml), all available through GIBCO, and Polybrene (2 μg/ml), available through Sigma. […] The production of p24 in the culture supernatent was monitored using a commercially available HIV p24 antigen detection kit (ELISA kit from Abbott Laboratories, North Chicago, U.S.A.).

HIV-1 clinical isolate 2 = HIV-1 clinical isolate 2 infectivity assay in PBMC (p24 in culture supernatant); conditions: FIG. 2
Description: as §1, §2

CC(C)C[C@H](NC(=O)[C@H](C)N)C(=O)NCC(=O)N1CCC[C@H]1C(=O)NCC(N)=O [ALGPG-NH2] (H-ALGPG-NH2; N-terminus assumed)
inhibition of HIV-1 SF-2 infection (HIV-1 SF-2; 5 μM peptide amide): approximately 50% | inhibition of HIV-1 SF-2 infection (HIV-1 SF-2; 20 μM peptide amide): almost complete | inhibition of HIV-1 SF-2 infection (HIV-1 SF-2; 100 μM peptide amide): almost complete | inhibition of isolate 1 (HIV-1 clinical isolate 1; 20 μM): approximately 20% | inhibition of isolate 1 (HIV-1 clinical isolate 1; 100 μM): almost complete | inhibition of isolate 2 (HIV-1 clinical isolate 2; 20 μM): approximately 50% | inhibition of isolate 2 (HIV-1 clinical isolate 2; 100 μM): almost complete
